Measured values taken from patent US9855245B2, “Methods for improving lipid profiles using atrasentan” (AbbVie Inc., priority 2013, dated 2018).
Several values for one entry are separate records, joined by “and”; a condition that tells them apart may be missing. Equal entries are not always repeated.

Tests used:
[1] = system: subjects with type 2 diabetes and nephropathy; test: Example 4: combined data of Examples 1 and 2, statin / non-statin sub-populations, total and LDL cholesterol; format: in vivo, human; set-up: Total C, Mean Change / LDL, Mean Change: unit not given here
Experimental: A review of the data obtained from the studies detailed in Examples 1 and 2, above, with respect to total serum cholesterol and serum LDL cholesterol, indicated a meaningful reduction was achieved relative to baseline for both. For example, although the reduction in total serum cholesterol and serum LDL cholesterol for subjects receiving a 0.75 mg dose of atrasentan, after 12 weeks of therapy, varied, the average for both of the studies detailed in Examples 1 and 2 was approximately 14%. As a result, the data obtained from these studies as further reviewed subsequent to collection and a sub-population of subjects in each study was identified as receiving or taking a statin in combination with the atrasentan dose (either a 0.75 mg or 1.25 mg dose). The data relating to the impact of atrasentan on total serum cholesterol and serum LDL cholesterol from each study for this sub-population was combined and a new average (mean) baseline, as well as change relative thereto over the time period of the study, was calculated for each of the total serum cholesterol and serum LDL cholesterol. For purposes of comparison, data relating to the impact of atrasentan on total serum cholesterol and serum LDL cholesterol for each study for subjects that were not receiving or taking a statin was combined and a new average (mean) baseline, as well as change relative thereto over the time period of the study, was also calculated for each of the total serum cholesterol and serum LDL cholesterol.

[2] = system: subjects with type 2 diabetes and nephropathy; test: Example 1: Phase 2b randomized, double-blind, placebo-controlled 12-week clinical study; conditions: for Weight, LS Mean Change from Baseline (SE): Week 12; for UACR Change from Baseline LS Mean (SE) / UACR Geometric Mean Change (Percent): baseline to final on-treatment measurement
Experimental: The primary efficacy endpoint was the change from baseline to Week 12 in log-transformed UACR with the primary analysis conducted using mixed-effects, maximum likelihood, repeated measures (MMRM) with fixed effects for treatment, country, visit, and treatment-by-visit interaction, with baseline measurement and baseline-by-visit interaction as covariates.
All safety analyses were performed on treatment-emergent adverse events only. Treatment-emergent adverse events were defined as those that first occurred or worsened on or after the date of first dose of study drug through 30 days after the last dose of study drug.

[3] = subjects not receiving statins, 0.75 mg
[4] = subjects receiving statins and 0.75 mg of atrasentan

## CCCCN(CCCC)C(=O)CN1C[C@H](c2ccc3c(c2)OCO3)[C@@H](C(=O)O)[C@@H]1c1ccc(OC)cc1 [Atrasentan, (2R,3R,4S)-4-(1,3-benzodioxol-5-yl)-1-[2-(dibutylamino)-2-oxoethyl]-2-(4-methoxyphenyl)pyrrolidine-3-carboxylic acid]
[1]; 0.75 mg dose, after 12 weeks of therapy
  reduction in total serum cholesterol and serum LDL cholesterol relative to baseline, average for both studies (Examples 1 and 2): approximately 14%
[1]; Non-Statin, 0.75 mg
  LDL, % Change: −13.1%
  LDL, Mean Change: −13.4
  Total C, % Change: −9.3%
  Total C, Mean Change: −14.9
[1]; Non-Statin, 1.25 mg
  LDL, % Change: −18.8%
  LDL, Mean Change: −21.0
  Total C, % Change: −12.8%
  Total C, Mean Change: −18.4
[1]; Statin sub-population, 0.75 mg
  LDL, % Change: −15.4%
  LDL, Mean Change: −12.8
  Total C, % Change: −10.4%
  Total C, Mean Change: −17.1
[1]; Statin sub-population, 1.25 mg
  LDL, % Change: −14.2%
  LDL, Mean Change: −11.6
  Total C, % Change: −10.4%
  Total C, Mean Change: −17.1
[1]; [3]
  reduction in LDL cholesterol: 13%
  reduction in total cholesterol: 9%
[1]; [4]
  reduction in LDL cholesterol: 15%
  reduction in total cholesterol: 10%
[2]; 0.75 mg, N = 59
  Any adverse event: 37 (62.7) N (%) of Subjects
  Any adverse event leading to discontinuation of study drug: 5 (8.5) N (%) of Subjects
  Death: 0 N (%) of Subjects
  Fatal adverse event: 0 N (%) of Subjects
  Possibly or probably drug-related adverse event: 16 (27.1) N (%) of Subjects
  Serious adverse event: 4 (6.8) N (%) of Subjects
  Severe adverse event: 5 (8.5) N (%) of Subjects
[2]; 0.75 mg/day
  Cholesterol, Difference (95% CI) from placebo: −14.1 (−28.65, 0.53) mg/dL
  Cholesterol, Final On-Treatment Visit Mean (SD): 148.9 (36.93) mg/dL
  Cholesterol, LS Mean Change from Baseline (SE): −13.0 (3.93) mg/dL
  HDL-C, Difference (95% CI) from placebo: 0.2 (−3.68, 4.13) mg/dL
  HDL-C, Final On-Treatment Visit Mean (SD): 42.1 (12.06) mg/dL
  HDL-C, LS Mean Change from Baseline (SE): −2.2 (1.05) mg/dL
  Had ≧30% Reduction in UACR and No Edema (no moderate or severe adverse event of edema): 27 (47.4) Number (%) of Subjects
  Hemoglobin, Difference (95% CI) from placebo: −0.94 (−1.423, −0.450) g/dL
  Hemoglobin, LS Mean Change from Baseline (SE): −0.97 (0.126) g/dL
  LDL-C, Difference (95% CI) from placebo: −12.5 (−23.56, −1.41) mg/dL
  LDL-C, Final On-Treatment Visit Mean (SD): 71.4 (27.39) mg/dL
  LDL-C, LS Mean Change from Baseline (SE): −10.3 (3.01) mg/dL
  Percentage of Subjects with ≧30% Reduction in Log-Transformed UACR from Baseline to Final Measurement: 50.9%
  Percentage of Subjects with ≧40% Reduction in Log-Transformed UACR from Baseline to Final Measurement: 38.6%
  Percentage of Subjects with ≧50% Reduction in Log-Transformed UACR from Baseline to Final Measurement: 29.8%
  Triglycerides, Difference (95% CI) from placebo: −37.6 (−97.24, 22.01) mg/dL
  Triglycerides, Final On-Treatment Visit Mean (SD): 179.9 (101.27) mg/dL
  Triglycerides, LS Mean Change from Baseline (SE): −4.3 (16.05) mg/dL
  Weight, Difference (95% CI) from placebo: −0.1 (−2.32, 2.07) kg
  Weight, Final On-Treatment Visit Mean (SD): 93.0 (21.28) kg
  decrease in weight at Week 12: 0.8 kg
  diastolic blood pressure, mean change from baseline to last on-treatment visit: −1.49 mmHg
  direct effect on change in UACR (path analysis vs change in systolic blood pressure): 97.52%
  fatigue leading to discontinuation: 1.7%
  geometric mean reduction in UACR, baseline to final on-treatment measurement: 37.7%
  incidence of anemia: 6.8%
  incidence of peripheral edema: 32.2%
  mean changes in weight vs placebo (repeated-measures analysis): statistically significantly different from placebo only at Week 2
  mean diastolic blood pressure, difference from baseline: statistically significant at Weeks 1, 4, and 6
  mean systolic blood pressure, difference from baseline: statistically significant at Week 4
  peripheral edema leading to discontinuation: 3.4%
  subjects discontinued because of an adverse event: 5 subjects
  subjects discontinued prematurely from the study: 13.6%
  subjects who discontinued study drug because of adverse events: 8.5%
  subjects with adverse event infection: 3.4%
  systolic blood pressure, mean change from baseline to last on-treatment visit: −2.44 mmHg
  weight, mean change from baseline to last on-treatment visit: -1.20 kg
  Weight, LS Mean Change from Baseline (SE): −0.8 (0.69) kg
  UACR Change from Baseline LS Mean (SE): −0.47 (0.12) log mg/g creatinine
  UACR Geometric Mean Change (Percent): −37.77%
[2]; 0.75 mg/day vs placebo
  UACR Between-group Comparison Difference (90% CI): −0.47 (−0.71, −0.22)
[2]; 1.25 mg, N = 64
  Any adverse event: 47 (73.4) N (%) of Subjects
  Any adverse event leading to discontinuation of study drug: 7 (10.9) N (%) of Subjects
  Death: 0 N (%) of Subjects
  Fatal adverse event: 0 N (%) of Subjects
  Possibly or probably drug-related adverse event: 27 (42.2) N (%) of Subjects
  Serious adverse event: 4 (6.3) N (%) of Subjects
  Severe adverse event: 1 (1.6) N (%) of Subjects
[2]; 1.25 mg/day
  Cholesterol, Difference (95% CI) from placebo: −17.2 (−31.60, −2.88) mg/dL
  Cholesterol, Final On-Treatment Visit Mean (SD): 147.6 (33.53) mg/dL
  Cholesterol, LS Mean Change from Baseline (SE): −16.2 (3.75) mg/dL
  HDL-C, Difference (95% CI) from placebo: 2.2 (−1.61, 6.08) mg/dL
  HDL-C, Final On-Treatment Visit Mean (SD): 43.4 (10.51) mg/dL
  HDL-C, LS Mean Change from Baseline (SE): −0.2 (1.00) mg/dL
  Had ≧30% Reduction in UACR and No Edema (no moderate or severe adverse event of edema): 28 (45.9) Number (%) of Subjects
  Hemoglobin, Difference (95% CI) from placebo: −0.98 (−1.462, −0.505) g/dL
  Hemoglobin, Final On-Treatment Visit Mean (SD): 11.79 (1.702) g/dL
  Hemoglobin, LS Mean Change from Baseline (SE): −1.02 (0.120) g/dL
  LDL-C, Difference (95% CI) from placebo: −13.1 (−23.98, −2.29) mg/dL
  LDL-C, Final On-Treatment Visit Mean (SD): 69.5 (22.54) mg/dL
  LDL-C, LS Mean Change from Baseline (SE): −11.0 (2.83) mg/dL
  Percentage of Subjects with ≧30% Reduction in Log-Transformed UACR from Baseline to Final Measurement: 52.5%
  Percentage of Subjects with ≧40% Reduction in Log-Transformed UACR from Baseline to Final Measurement: 36.1%
  Percentage of Subjects with ≧50% Reduction in Log-Transformed UACR from Baseline to Final Measurement: 29.5%
  Triglycerides, Difference (95% CI) from placebo: −64.6 (−123.32, −5.97) mg/dL
  Triglycerides, Final On-Treatment Visit Mean (SD): 167.4 (84.98) mg/dL
  Triglycerides, LS Mean Change from Baseline (SE): −31.4 (15.31) mg/dL
  Weight, Final On-Treatment Visit Mean (SD): 92.6 (18.74) kg
  diastolic blood pressure, mean change from baseline to last on-treatment visit: −2.74 mmHg
  fatigue leading to discontinuation: 3.1%
  geometric mean reduction in UACR, baseline to final on-treatment measurement: 40.7%
  incidence of anemia: 4.7%
  incidence of peripheral edema: 42.2%
  mean diastolic blood pressure, difference from baseline: statistically significant from Weeks 1 through 10
  mean increases in weight vs placebo (repeated-measures analysis): statistically significantly different from the mean changes with placebo from Week 1 through Week 8
  mean systolic blood pressure, difference from baseline: statistically significant at Weeks 1, 8, and 10
  peripheral edema leading to discontinuation: 4.7%
  subjects discontinued because of an adverse event: 7 subjects
  subjects discontinued prematurely from the study: 15.6%
  subjects who discontinued study drug because of adverse events: 10.9%
  subjects with adverse event infection: 0%
  systolic blood pressure, mean change from baseline to last on-treatment visit: −2.98 mmHg
  triglycerides, difference from placebo: statistically significant
  weight, mean change from baseline to last on-treatment visit: 2.02 kg
  Weight, LS Mean Change from Baseline (SE): 0.6 kg and 0.6 (0.66) kg
  UACR Change from Baseline LS Mean (SE): −0.52 (0.11) log mg/g creatinine
  UACR Geometric Mean Change (Percent): −40.67%
[2]; 1.25 mg/day vs placebo
  UACR Between-group Comparison Difference (90% CI): −0.51 (−0.75, −0.28)
[2]; 1.25 mg/day, Week 6
  mean ambulatory systolic blood pressure, difference from placebo: statistically significant difference
[2]; all treatment groups, change not clinically meaningful
  mean HDL-C change: decreased slightly
[2]; both atrasentan groups, at Week 2 and throughout the study
  hemoglobin relative to placebo: Statistically significantly mean decreases
